Converted amounts (≈) assume the structure as drawn. Read-outs that look alike come from different tables or passages of the source.

As a reminder, the IC50 is the concentration needed to halve the response being measured.

For experiment [1], the system named is A-375 malignant melanoma cells. Nature of the experiment: In vitro antitumor activity, A-375 melanoma. The format is cell-based, human. The source says: (§1) 1) in vitro tumor cell viability assays using MTT and SRB dye reaction endpoints.
(§2) Sulforhodamine B (SRB) Assay for Adherent Tumor Cells
(§3) Sulforhodamine B (SRB) is a protein binding aminoxanthene dye with two sulfonic acid groups. (Lillie, R. D., H. J. Conn's Biological Stains, 9th Ed., Baltimore; Williams & Wilkins, 1977.) It quantitates whole cell protein content by the intensity of dye staining and relates this to the number of viable cells. […] The SRB assay is used for cells which normally adhere to surfaces (in this case plastic culture flasks or petri dishes) as part of their requirement for growth and division in vitro. The SRB assay is currently used by the National Cancer Institute in the anticancer drug screening program. (Skehan, et al., J Natl Cancer Inst 82:1107-1112, 1990; Rubinstein, et al., J Natl Cancer Inst 82:1113-1118, 1990.) Methodologic comparisons have shown that SRB results are linear for the number of tumor cells over a 100-fold range, and for protein content determined by a modified Lowry method or Standard Bradford (Bradford, M., Anal Biochem 72:248-254, 1976) methods. […] (Lillie, R. D., H. J. Conn's Biological Stains, 9th Ed., Baltimore; Williams & Wilkins, 1977.)
(§4) Cell cultures of 10^3 -10^7 cells growing in 96-well plastic microtiter plates are fixed with 50% trichloroacetic acid (TCA) for 30 minutes at 4° C. The cells are then stained with 0.4% (w/v) sulforhodamine B (SRB) dissolved in 1% acetic acid. Unbound dye is removed by 4 washes with 1% acetic acid, and protein-bound dye is extracted with 10 mM unbuffered Tris® base [tris(hydroxymethyl)aminomethane]. The optical density (OD) of this extracted solution is measured at […] in a microtiter plate ultraviolet absorbance detector. Cell viability is expressed as percent of control by dividing the optical densities and multiplying the result by 100.
(§5) Microculture Tetrazolium (MTT) Assay for Tumor Cells
(§6) Tumors are disaggregated into single cell suspensions using mechanical, hypoosmotic, and/or enzymatic (trypsin) methods. The cells are plated at a concentration of 3-5×10^4 per […] well into plastic 96-well plates. Growth medium containing 5-10% (vol/vol) heat-inactivated fetal bovine serum and penicillin/streptomycin (both […]) are added prior to incubation at 37° C. for 6 days. Afterwards the medium containing the drug is removed, the cells are centrifuged in fresh medium or phosphate-buffered saline (pH 7.4). A tetrazolium dye, […]-2,5-diphenyl tetrazolium (MTT), is then added. (Mossman, T., J Immunol 65:55-63, 1983.) This dye forms a colored formazan product upon activation by mitochondrial reductases in viable cells. Typically, the formazan product is solubilized in acid-propanol or DMSO. The intensity of the color is proportional to viable cell numbers and this is quantitated by spectrophotometric absorbance at 570 nm on a micro ELISA plate reader. The results are calibrated in % control absorbance from untreated tumor cells. (Alley, et al., Cancer Res 48:589-601, 1988.)
(§7) Table 3 gives the potencies of the new aziridine-1-carboxamides in a panel of human and murine tumor cells in culture. The tumor cell lines in this table are selected to represent a range of histological and growth phenotypes. Their characteristics are described below.
4.0 The Human A-375 Malignant Melanoma Cell Line was also developed by Girard, et al. (Girard, et al., J Natl Cancer Inst 51(5):1417-1423, 1973) from a human with advanced melanoma. The modal chromosome number is 67 and it has a low plating (colony forming) efficiency of 0.7% when grown on agar. These cells also form rapidly growing tumors when injected subcutaneously into immunodeficient athymic (nu/nu) mice. (Girard, et al., J Natl Cancer Inst 51(5):1417-1423, 1973.) These cells are also used in the NCI drug screening panel. (Skehan, et al., J Natl Cancer Inst 82:1107-1112, 1990.)

Experiment [2] deals with OVCAR-3 ovarian carcinoma cells. Nature of the experiment: In vitro antitumor activity, OVCAR-3 ovarian. The format is cell-based, human. As to conditions: OVCAR3 ovarian.
From the text: as §1, §2, §3, §4, §5, §6, §7
5.0 Human OVCAR-3 Ovarian Carcinoma was originally isolated by Hamilton, et al. Experimental model systems of ovarian cancer; applications to the design and evaluation of new treatment approaches. Seminar in Onocology, 11:285-298, 1984, from a patient with progressive adenocarcinoma of the ovary. This patient had relapsed after receiving a combination chemotherapy regimen containing cyclophosphamide, doxorubicin and cisplatin. […] It is also one of the standard human tumor cell lines used for screening new anticancer agents at the NCI. (Alley, et al., Cancer Res 48:589-601, 1988.)

Experiment [3] relates to L-1210 MDR leukemia cells. The experiment in a line: MTT growth inhibition, multidrug-resistant L-1210 leukemia cells. As to conditions: for Fold Resistance of IC50 's (MDR/S): L-1210 MDR vs sensitive, 11520 min; for IC50: MDR L-1210, drug continuously present 8 days. In kind it is cell-based, mouse. The procedure: as §6
In addition, the imexon analogs have also been tested in a multidrug-resistant (MDR) mouse L-1210 leukemia cell line.
L-1210 MDR Cells represent a multidrug-resistant cell line developed for resistance to the alkylating agent mitomycin C. (Dorr, et al., Biochem Pharmacol 36(19):3115-3120, 1987.) This cell line has the same general growth characteristics of the parental line, but is cross-resistant to numerous natural-product based anticancer agents. This includes anthracyclines such as doxorubicin (Adriamycin®) and vinca alkaloids such as vincristine or vinblastine.
*Drug continuously present for 8 days; IC50 measured by MTT dye

[4] abbreviates: Homo sapiens, OVCAR-3, read-out: IC50.
[5] abbreviates: Mus musculus, L1210, 192 h, read-out: IC50.

Turning to `N#CC1CN1C(=O)Nc1ccc(C(F)(F)F)cc1` (centres unmarked) [AMP 416, 2-Cyanoaziridine-1-[N-(4-trifluorophenyl)]carboxamide], the IC50 in experiment [1] (Homo sapiens, read-out: IC50) was determined as 3 µg/mL (≈ 11.8 µM); in experiment [2] (setting [4]), 1.5 µg/mL; in experiment [3] (setting [5]), 1.8 µg/mL (≈ 7.05 µM). In addition, the “Fold Resistance of IC50 's (MDR/S)” value in experiment [3] was 0.9.
Consider `CCOC(=O)c1ccc(NC(=O)N2CC2C#N)cc1` (centres unmarked) [AMP 419, 2-Cyanoaziridine-1-[N-(4-ethoxycarbonylphenyl)]carboxamide], for which the IC50 in experiment [1] (Homo sapiens, read-out: IC50) was 2 µg/mL (≈ 7.71 µM); in experiment [2] (setting [4]), 1.5 µg/mL; in experiment [3] (setting [5]), 3 µg/mL (≈ 11.6 µM). In experiment [3], the “Fold Resistance of IC50 's (MDR/S)” value is on record as 1.2.
The matching figures for `N#CC1CN1C(=O)Nc1ccc(Cl)cc1Cl` (centres unmarked) [AMP 407, 2-Cyanoaziridine-1-[N-(2,4-dichlorophenyl)]carboxamide]: 2 µg/mL (≈ 7.81 µM), 0.6 µg/mL, 8.4 µg/mL (≈ 32.8 µM) and 0.16.
For `N#CC1CN1C(=O)Nc1ccc(S(N)(=O)=O)cc1` (centres unmarked) [AMP 422, 2-Cyanoaziridine-1-[N-(4-sulfamylphenyl)]carboxamide], the IC50 in experiment [1] (Homo sapiens, read-out: IC50) is 50 µg/mL (≈ 188 µM); in experiment [2] (setting [4]), 50 µg/mL; in experiment [3] (setting [5]), more than 10 µg/mL.
In the case of `N#CC1CN1C(=O)NC1CCCCC1` (centres unmarked) [AMP 413, 2-Cyanoaziridine-1-(N-cyclohexyl)carboxamide], the IC50 is 6.7 µg/mL (≈ 34.7 µM) in experiment [1] (Homo sapiens, read-out: IC50); 5.9 µg/mL in experiment [2] (setting [4]); 3.1 µg/mL (≈ 16 µM) in experiment [3] (setting [5]). The “Fold Resistance of IC50 's (MDR/S)” value in experiment [3] came out at 2.2.
The matching figures for `N#CC1CN1C(=O)Nc1ccc(F)cc1` (centres unmarked) [AMP 415, 2-Cyanoaziridine-1-[N-(4-fluorophenyl)]carboxamide]: 0.7 µg/mL (≈ 3.41 µM), 1.2 µg/mL, 1.2 µg/mL (≈ 5.85 µM) and 0.8.
`CNC(=O)N1CC1C#N` (centres unmarked) [AMP 403, 2-Cyanoaziridine-1-(N-methyl)carboxamide]: the IC50 in experiment [1] (Homo sapiens, read-out: IC50) stood at 2.1 µg/mL (≈ 16.8 µM); in experiment [2] (setting [4]) it was 1.7 µg/mL; in experiment [3] (setting [5]) it was 2.7 µg/mL (≈ 21.6 µM). Moreover, in experiment [3], the “Fold Resistance of IC50 's (MDR/S)” value stood at 2.5.
Turning to `N#CC1CN1C(=O)Nc1cccc2ccccc12` (centres unmarked) [AMP 423, 2-Cyanoaziridine-1-[N-(1-naphthyl)]carboxamide], the IC50 in experiment [1] (Homo sapiens, read-out: IC50) is 1 µg/mL (≈ 4.21 µM); in experiment [2] (setting [4]), 1.4 µg/mL; in experiment [3] (setting [5]), 0.64 µg/mL (≈ 2.7 µM). The “Fold Resistance of IC50 's (MDR/S)” value in experiment [3] came to 0.4.
The matching figures for `N#CC1CN1C(=O)Nc1ccc([N+](=O)[O-])cc1` (centres unmarked) [AMP 417, 2-Cyanoaziridine-1-[N-(4-nitrophenyl)]carboxamide]: 0.9 µg/mL (≈ 3.88 µM), 1.5 µg/mL, 0.6 µg/mL (≈ 2.58 µM) and 1.0.
The matching figures for `CC(=O)c1cccc(NC(=O)N2CC2C#N)c1` (centres unmarked) [AMP 425, 2-Cyanoaziridine-1-[N-(3-acetylphenyl)]carboxamide]: 1.8 µg/mL (≈ 7.85 µM), 2.23 µg/mL, 1.8 µg/mL (≈ 7.85 µM) and 0.8.
In the case of `CCCCNC(=O)N1CC1C#N` (centres unmarked) [AMP 414, 2-Cyanoaziridine-1-(N-butyl)carboxamide], the IC50 in experiment [1] (Homo sapiens, read-out: IC50) is 2.5 µg/mL (≈ 15 µM); in experiment [2] (setting [4]), 2 µg/mL; in experiment [3] (setting [5]) it was 2 µg/mL (≈ 12 µM). In addition, the “Fold Resistance of IC50 's (MDR/S)” value in experiment [3] came to 1.0.
Consider `N#CC1CN1C(=O)NCc1ccccc1` (centres unmarked) [AMP 412, 2-Cyanoaziridine-1-(N-benzyl)carboxamide], for which the IC50 in experiment [1] (Homo sapiens, read-out: IC50) worked out at 2.2 µg/mL (≈ 10.9 µM); in experiment [2] (setting [4]), 1 µg/mL; in experiment [3] (setting [5]) it was 2.1 µg/mL (≈ 10.4 µM). In addition, the “Fold Resistance of IC50 's (MDR/S)” value in experiment [3] was 2.6.
For the compound `CC(=O)Oc1ccccc1NC(=O)N1CC1C#N` (centres unmarked) [AMP 424, 2-Cyanoaziridine-1-[N-(2-acetoxyphenyl)]carboxamide], the IC50 in experiment [1], in experiment [2] and in experiment [3] was more than 10 µg/mL in each case. The “Fold Resistance of IC50 's (MDR/S)” value in experiment [3] is on record as 1.0.
Consider `N#CC1CN1C(=O)Nc1ccccc1` (centres unmarked) [AMP 404, 2-Cyanoaziridine-1-(N-phenyl)carboxamide], for which the half-maximal inhibitory concentration (IC50) in experiment [1] (Homo sapiens, read-out: IC50) stood at 2.1 µg/mL (≈ 11.2 µM); in experiment [2] (setting [4]), 1.3 µg/mL; in experiment [3] (setting [5]), 2.1 µg/mL (≈ 11.2 µM). Moreover, in experiment [3], the “Fold Resistance of IC50 's (MDR/S)” value was found to be 10.5.
With `N#CC1CN1C(=O)Nc1cccnc1` (centres unmarked) [AMP 421, 2-Cyanoaziridine-1-[N-(3-pyridyl)]carboxamide], the IC50 was 2.3 µg/mL (≈ 12.2 µM) in experiment [1] (Homo sapiens, read-out: IC50); 1.9 µg/mL in experiment [2] (setting [4]); 2.1 µg/mL (≈ 11.2 µM) in experiment [3] (setting [5]). Moreover, the “Fold Resistance of IC50 's (MDR/S)” value in experiment [3] is 0.9.
The matching figures for `CCOC(=O)CNC(=O)N1CC1C#N` (centres unmarked) [AMP 420, 2-Cyanoaziridine-1-[N-(ethoxycarbonyl)methyl]carboxamide]: 10 µg/mL (≈ 50.7 µM), 10 µg/mL, 2.5 µg/mL (≈ 12.7 µM) and 1.0.
As to `CC(C)(C)NC(=O)N1CC1C#N` (centres unmarked) [AMP 410, 2-Cyanoaziridine-1-(N-t-butyl)carboxamide], the IC50 in experiment [1] (Homo sapiens, read-out: IC50) turned out to be 69.9 µg/mL (≈ 418 µM); in experiment [2] (setting [4]), 31.1 µg/mL; in experiment [3] (setting [5]) it was 30.7 µg/mL (≈ 184 µM). Also, the “Fold Resistance of IC50 's (MDR/S)” value in experiment [3] is 1.4.
With `CCNC(=O)N1CC1C#N` (centres unmarked) [AMP 406, 2-Cyanoaziridine-1-(N-ethyl)carboxamide], the IC50 is 5 µg/mL (≈ 35.9 µM) in experiment [1] (Homo sapiens, read-out: IC50); 2 µg/mL in experiment [2] (setting [4]); 2 µg/mL (≈ 14.4 µM) in experiment [3] (setting [5]). In addition, the “Fold Resistance of IC50 's (MDR/S)” value in experiment [3] stood at 1.0.

The record behind these values is patent US6297230A, “Cyanoaziridines for treating cancer” (priority 2000, dated 2001).
